“And” between values parts separate entries of the source, which are not always exact repeats. Identical values can stand only once. Like-named read-outs stand apart in the source and are kept apart here.
Columns and labels:
ISG15 and PKR expression [1] = assay type: cell-based
MERS-PLpro_WT = MERS-PLpro_WT (Middle East respiratory syndrome-related coronavirus, UniProt K9N7C7); assay type: binding
SARS-CoV-2 [2] = assay type: cell-based
SARS-CoV-2 [3] = tested on: SARS-CoV-2; parameters: species or system golden Syrian hamster; settings: hamster, in vivo
[4] = tested on: Huh-7, VeroE6/TMPRSS2, Calu-3, Caco-2, BSC-1 cells and human embryonic lung fibroblasts (HELF)
MERS-CoV [5] = assay: microbe, parasite or virus in culture; assay type: cell-based
hCoV-229E = assay type: cell-based
SARS-CoV-2 [6] = assay type: cell-based; remark: listed apart in the source
[7] = tested on: PLpro-mediated IFN suppression (SARS2-PLpro, MERS-PLpro); assay type: cell-based
human DUBs = assay type: biochemical
hCoV-OC43 = assay type: cell-based
[8] = tested on: cellular proteases (serine, cysteine and acid proteases); assay type: biochemical
SARS2-PLpro [9] = target: T1, SARS2-PLpro (Severe acute respiratory syndrome coronavirus 2, UniProt P0DTD1); assay type: biochemical; settings: read-out: IC50 against SARS2-PLpro
ISG15 and PKR expression [10] = tested on: ISG15 and PKR expression
SARS2-PLpro [11] = target: T1, SARS2-PLpro; assay type: biochemical
MERS-CoV [12] = assay type: cell-based
MERS-CoV [13] = assay type: cell-based; remark: listed apart in the source
SARS-CoV-2 [14] = assay: microbe, parasite or virus in culture; assay type: cell-based
SARS2-PLpro [15] = target: T1, SARS2-PLpro; assay type: binding, SARS-CoV-2
MERS-PLpro = MERS-PLpro (Middle East respiratory syndrome-related coronavirus, UniProt K9N7C7); assay type: biochemical
[16] = Severe acute respiratory syndrome coronavirus 2, read-out: EC50 anti-SARS-CoV-2

MERS-PLpro_WT, sequence (K9N7C7 1552-1823 limits assumed): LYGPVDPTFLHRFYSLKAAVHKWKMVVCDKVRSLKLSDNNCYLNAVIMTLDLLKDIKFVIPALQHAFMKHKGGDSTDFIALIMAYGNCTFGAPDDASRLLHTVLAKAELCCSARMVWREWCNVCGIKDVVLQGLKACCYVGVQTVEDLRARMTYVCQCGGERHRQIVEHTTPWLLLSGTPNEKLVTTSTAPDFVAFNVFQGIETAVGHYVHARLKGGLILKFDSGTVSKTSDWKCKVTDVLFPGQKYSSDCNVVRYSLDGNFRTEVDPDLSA
MERS-PLpro, sequence (K9N7C7 1552-1823 limits assumed): as above

## O=C(Nc1ccccc1Cl)c1sc(=S)n2c1[nH]c(=O)c1ccccc12 [F0213]
ISG15 and PKR expression [1]
  transcription levels of ISG15 and PKR, MERS-CoV-infected Huh-7 cells: reduced
MERS-PLpro_WT; read-out: KD, MERS-PLpro WT
  Kd: 0.95 µM
SARS-CoV-2 [2]
  NP antigen immunofluorescence, SARS-CoV-2-infected Vero cells: significant inhibition of virus replication
SARS-CoV-2 [3]
  decrease of infectious viral PFU in lung tissues: 1–2 log10
  lung histology scores: significantly reduced
  suppression of SARS-CoV-2 genome copies (normalized by β-actin) in the lungs: comparable degree of suppression
[4]
  cytotoxicity in the matching cell lines: negligible cytotoxicity
MERS-CoV [5]; Middle East respiratory syndrome-related coronavirus, read-out: antiviral EC50 against MERS-CoV
  EC50: 1.54 µM
hCoV-229E
  decrease of viral yields, hCoV-229E: about 2 log10
SARS-CoV-2 [6]
  reduction of SARS-CoV-2 viral yields: more than 1 log10
[7]
  IFN-β, IRF3 and NF-κB reporter gene expression under PLpro suppression: rescued the genes expression in a dose-dependent manner
Human DUBs
  modification of cellular DUBs by HA-Ub-VS: no change
hCoV-OC43
  decrease of viral yields, hCoV-OC43: around 1.5 log10
[8]
  cellular protease activity: not affected
SARS2-PLpro [9]
  IC50: 7.4 µM
ISG15 and PKR expression [10]
  expression of ISG15 and PKR, SARS-CoV-2-infected Caco-2 cells: significantly enhanced
SARS2-PLpro [11]
  modification of PLpro by HA-Ub-VS: almost completely eliminated
MERS-CoV [12]
  decrease of viral yields, MERS-CoV: about 3 log10
MERS-CoV [13]
  NP antigen immunofluorescence, MERS-CoV-infected Vero cells: significant inhibition of virus replication
SARS-CoV-2 [14]; [16]
  EC50: 4.55 µM
SARS-CoV-2 [14]; read-out: EC50 anti-SARS-CoV-2
  EC50: 4.55 µM and 4.5 µM
SARS2-PLpro [15]
  KD of F0213 to SARS2-PLpro pre-incubated with GRL0617: undetectable
  binding affinity to SARS2-PLpro relative to GRL0617 (fold less): around 5 fold
SARS2-PLpro [15]; read-out: Kd, SARS2-PLpro
  Kd: 40.5 µM

## Cc1cccc(NC(=O)c2sc(=S)n3c2[nH]c(=O)c2cc4c(cc23)OCO4)c1 [F0393]
SARS2-PLpro [9]
  IC50: 15.8 µM
SARS-CoV-2 [14]; [16]
  EC50: 15.6 µM

## N#C[C@@]1(c2ccc3c(N)ncnn23)O[C@H](CO)[C@@H](O)[C@H]1O [GS-441524, reference compound]
SARS-CoV-2 [3]
  decrease of infectious viral PFU in lung tissues: comparable
  lung histology scores: significantly reduced
  suppression of SARS-CoV-2 genome copies (normalized by β-actin) in the lungs: comparable degree of suppression

## CCC(CC)COC(=O)[C@H](C)N[P@](=O)(OC[C@H]1O[C@@](C#N)(c2ccc3c(N)ncnn23)[C@H](O)[C@@H]1O)Oc1ccccc1 [remdesivir]
SARS-CoV-2 [2]
  NP antigen immunofluorescence, SARS-CoV-2-infected Vero cells: significant inhibition of virus replication
MERS-CoV [13]
  NP antigen immunofluorescence, MERS-CoV-infected Vero cells: significant inhibition of virus replication

## GRL0617 [reference compound]
MERS-PLpro_WT
  KD, MERS-PLpro WT: no binding affinity
SARS-CoV-2 [2]
  NP antigen immunofluorescence, SARS-CoV-2-infected Vero cells: marginal virus suppression
MERS-CoV [5]
  inhibition against MERS-CoV: no inhibition
MERS-PLpro
  effect on MERS-PLpro activity: ineffective
MERS-CoV [13]
  NP antigen immunofluorescence, MERS-CoV-infected Vero cells: marginal virus suppression

Reference: article PMC8983325 (Protein & Cell, 2022)
